Measurements published in publication PMC11080515, “Novel anthraquinone amide derivatives as potential glyoxalase-I inhibitors” (Journal of Medicine and Life, 2024).
Values joined by “and” are separate entries in the source; they are usually repeats but may differ in a detail not shown here. Equal values may be shown once. Read-outs that look alike come from different tables or passages of the source.

Target: T1, Recombinant human Glo-I (rhGlo-I) (Homo sapiens, UniProt Q04760)
T1 construct: purchased R&D Systems Corporation
T1 sequence (Q04760 2-184 limits assumed): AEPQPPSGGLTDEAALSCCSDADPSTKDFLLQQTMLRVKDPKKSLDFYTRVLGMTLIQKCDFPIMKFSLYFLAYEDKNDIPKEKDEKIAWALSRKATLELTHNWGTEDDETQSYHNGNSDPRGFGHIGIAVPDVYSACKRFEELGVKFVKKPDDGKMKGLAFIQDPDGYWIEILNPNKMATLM
Experiment: In vitro Glo-I enzyme inhibition assay (spectrophotometric, 240 nm)
Type: biochemical
Set-up: average inhibitory activity: dose or concentration left out as unconfirmed
Conditions: for % Inhibition / inhibition at 1.25 µM / inhibition at 2.5 µM / inhibition at 5 µM / inhibition at 10 µM / inhibition at 0.625 µM: single replicates
Method: Glo-I inhibitory action was evaluated following the methodology described by Al-Balas et al.. Recombinant human Glo-I (rhGlo-I) was procured from R&D Systems Corporation and […] in sterile deionized water at a precise concentration of 0.5 mg/ml before being reconstituted. The reconstituted rhGlo-I was stored at -70 °C until further use. Dimethyl sulfoxide (DMSO) was used to dissolve the test compounds to produce stock solutions with a 10 mM concentration. The assay buffer required for the experiment was made by mixing 0.1 M sodium phosphate monobasic solution with 0.1 M sodium phosphate dibasic solution, resulting in a pH range of 7.0–7.2. The reduced glutathione and methylglyoxal solutions were combined with a sufficient 0.1 M sodium phosphate assay buffer volume to create the substrate combination. In a cuvette, the assay buffer, substrate solution, and Glo-I enzyme were combined with the synthesized products at the required concentration. […] The maximum absorbance (γmax) was recorded at 240 nm.
In this study, the inhibitory activity of all synthesized compounds against the Glo-I enzyme was evaluated in vitro using recombinant human Glo-I obtained from R&D Systems Corporation. The methodology previously described was employed, which involved measuring the inhibition of Glo-I activity and substrate hydrolysis using a spectrophotometer at 240 nm. […] The activity profile of the tested compounds against Glo-I is depicted in Figure 12.

[1] = concentration 0.625 µM, 0.625 µM
[2] = from the % inhibition curve, 0.625-10 µM, read-out: Calculated IC50
[3] = rhGlo-I, 25 °C, pH 7.0-7.2, read-out: IC50

| SMILES | % Inhibition [1] | inhibition at 1.25 µM (concentration 1.25 µM) [%] | % Inhibition (concentration 1.25 µM, 1.25 µM) | inhibition at 2.5 µM (concentration 2.5 µM) [%] | % Inhibition (concentration 2.5 µM, 2.5 µM) | inhibition at 5 µM (concentration 5 µM) [%] | % Inhibition (concentration 5 µM, 5 µM) | inhibition at 10 µM (concentration 10 µM) [%] | % Inhibition (concentration 10 µM, 10 µM) | IC50 [2] [µM] | IC50 [3] | average inhibitory activity [%] | inhibition at 0.625 µM (concentration 0.625 µM) [%] |
| --- | --- | --- | --- | --- | --- | --- | --- | --- | --- | --- | --- | --- | --- |
| O=C(/C=C/c1ccc(O)c(O)c1)Nc1cccc2c1C(=O)c1ccccc1C2=O [MQ1, (E)-3-(3,4-dihydroxyphenyl)-N-(9, 10-dioxo-9, 10-dihydroanthracen-1-yl) acrylamide] | 4.207% and 6.929% and 8.658% | 12 | 11.45% and 12.03% | 11.8 | 13.44% and 14.71% | 18.8 | 20.12% and 19.93% | 33.4 | 34.53% and 33.46% | 27.9 | 27.9 µM |  |  |
| O=C(/C=C/c1ccc(O)c(O)c1)Nc1ccc2c(c1)C(=O)c1ccccc1C2=O [MQ3, (E)-3-(3,4-dihydroxyphenyl)-N-(9, 10-dioxo-9, 10-dihydroanthracen-2-yl) acrylamide] | 28.34% and 22.6726% | 39.2 | 42.53% and 40.76% | 69.6 | 70.04% and 70.55% | 82.3 | 84.9% and 85.44% | 97.5 | 93.8% and 98.6% | 1.46 | 1.46 µM and 1.45 µM | 96.63 | 27.5 |
| O=C(C=Cc1ccccc1)Nc1ccc2c(c1)C(=O)c1ccccc1C2=O [MQ4, N-(9, 10-dioxo-9, 10-dihydroanthracen-2-yl) cinnamamide] | 6.208% and 1.894% and 2.93% | 5.03 | 3.871% and 7.392% | 10.8 | 12.3% and 11.67% | 19.4 | 20.18% and 23.19% | 40.4 | 41.45% and 37.85% | 14.5 | 14.5 µM |  |  |
| O=C(C=Cc1ccccc1)Nc1cccc2c1C(=O)c1ccccc1C2=O [MQ5, N-(9, 10-dioxo-9, 10-dihydroanthracen-1-yl) cinnamamide] | 8.55% and 10.84% | 10.2 | 9.974% and 12.33% | 14.3 | 12.23% and 12.25% | 11.6 | 12.81% and 20.99% | 22 | 29% and 27.36% | 107 | 107 µM |  | 8.82 |
